Non-standard residues stand in square brackets, D forms with d. Residues, ends and D or L forms follow the SMILES beside them. ξ: configuration not given here. *: point of attachment. ξL = CC(C)CC(N)C(=O)O; CH2Cl = ClC*
Legend:
[1] = tested on: human poliomyelitis virus type 2 or human rhinovirus type 1A; type: cell-based; design: key to Protease-Inhibiting Activity of Selected Peptide Chloromethyl Ketones: Activity: -: no activity; +/-: low activity; +: active at 100 μg/mL; ++: active at 50 μg/mL; +++: active at 10 μg/mL; ++++: active at <5 μg/mL
[2] = tested on: Poliovirus type 2; type: cell-based
[3] = tested on: HeLa cells
[4] = tested on: rhinovirus type 1A; type: cell-based
[5] = tested on: human rhinovirus type 1A; type: cell-based; details: test concentration 100 μg/mL
[6] = tested on: human poliomyelitis virus type 2; type: cell-based; details: test concentration 100 μg/mL
[7] = molecular target: T1, subtilisin BPN' (Bacillus amyloliquefaciens, UniProt P00782); details: cited from earlier work
T1 sequence (P00782 108-382): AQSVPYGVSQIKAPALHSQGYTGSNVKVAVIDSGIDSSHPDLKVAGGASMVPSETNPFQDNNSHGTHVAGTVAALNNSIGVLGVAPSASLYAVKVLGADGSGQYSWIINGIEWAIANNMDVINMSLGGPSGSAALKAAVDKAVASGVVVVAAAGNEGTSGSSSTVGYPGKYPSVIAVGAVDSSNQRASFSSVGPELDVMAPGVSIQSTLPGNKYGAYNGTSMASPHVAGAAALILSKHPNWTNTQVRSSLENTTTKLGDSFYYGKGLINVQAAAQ

[8] = molecular target: chymotrypsin (Bos taurus, UniProt P00766); details: inhibitor concentration 600 μg/mL; cited from earlier work

Structure (SMILES): CC(=O)[C@H](CC(C)C)NC(=O)[C@H](CC(C)C)NC(=O)CNC(=O)[C@H](Cc1ccccc1)NC(=O)OCc1ccccc1 [Z-Phe-Gly-Leu-LeuCH3, N-carbobenzoxy-L-phenylalanyl-L-glycyl-L-leucyl-L-leucyl methyl ketone]
- Protease-Inhibiting Activity of Selected Peptide Chloromethyl Ketones: Activity [1]: +++ (key: -: no activity; +/-: low activity; +: active at 100 μg/mL; ++: active at 50 μg/mL; +++: active at 10 μg/mL; ++++: active at <5 μg/mL)

Structure (SMILES): CC(=O)[C@H](CC(C)C)NC(=O)[C@H](C)NC(=O)CNC(=O)[C@H](Cc1ccccc1)NC(=O)OCc1ccccc1 [Z-Phe-Gly-Ala-LeuCH3]
- Protease-Inhibiting Activity of Selected Peptide Chloromethyl Ketones: Activity [1]: +++ (key: -: no activity; +/-: low activity; +: active at 100 μg/mL; ++: active at 50 μg/mL; +++: active at 10 μg/mL; ++++: active at <5 μg/mL)
- plaque reduction compared to control plates [2]: > 90%
- cytotoxicity [3]: No cytotoxicity was observed
- plaque reduction compared to control plates [4]: > 90%

Structure (SMILES): COC(=O)CCC(=O)N[C@@H](Cc1ccccc1)C(=O)NCC(=O)N[C@@H](C)C(=O)N[C@@H](CC(C)C)C(C)=O [MeOSuc-Phe-Gly-Ala-LeuCH3, MeOSuc--Phe--Gly--Ala--LeuCH3]
- Protease-Inhibiting Activity of Selected Peptide Chloromethyl Ketones: Activity [1]: +++ (key: -: no activity; +/-: low activity; +: active at 100 μg/mL; ++: active at 50 μg/mL; +++: active at 10 μg/mL; ++++: active at <5 μg/mL)
- activity in the viral cleavage assay [5]: demonstrated activity
- activity in the viral cleavage assay [6]: demonstrated activity

Structure (SMILES): CC(=O)N[C@@H](Cc1ccccc1)C(=O)NCC(=O)N[C@@H](C)C(=O)NC(CC(C)C)C(=O)CCl (stereo partly drawn) [Peptide Analog 3, acetyl-L-phenylalanyl-L-glycyl-L-alanyl-L-leucyl chloromethyl ketone] (Ac-FGA[ξL]-CH2Cl)
- inhibition of subtilisin BPN' (rate, among the peptide chloromethyl ketones tested) [7]: fastest inhibitor

Structure (SMILES): CC(=O)N[C@@H](CC(C)C)C(=O)N[C@@H](CC(C)C)C(=O)N[C@@H](Cc1ccccc1)C(C)=O [Ac-Leu-Leu-PheCH3]
- inhibition of chymotrypsin [8]: no inhibition was observed

Structure (SMILES): CC(=O)[C@H](CC(C)C)NC(=O)[C@H](C)NC(=O)CNC(=O)[C@H](Cc1ccccc1)NC(=O)OC(C)(C)C [Boc-Phe-Gly-Ala-LeuCH3, reference compound]
- activity in the viral cleavage assay [1]: failed to show activity

Structure (SMILES): COC(=O)CCC(=O)N[C@@H](Cc1ccccc1)C(=O)NCC(=O)N[C@@H](CC(C)C)C(=O)N[C@@H](CC(C)C)C(C)=O [MeOSuc-Phe-Gly-Leu-LeuCH3]
- Protease-Inhibiting Activity of Selected Peptide Chloromethyl Ketones: Activity [1]: +/-

From patent US4652552A, “Tetrapeptide methyl ketone inhibitors of viral proteases” (priority 1984, dated 1987)
